Here are results for 25 compounds from US5300506A, “Indolylalkyl derivatives of pyrimidinylpiperazine for treating vascular headache” (Bristol-Myers Squibb Company, priority 1992, dated 1994).

The structures appear in SMILES notation. Structures can show the parent of a compound that is named as a salt.

The term IC50 denotes the concentration that gives 50% inhibition.

Tested on in the first series: not given
Test: not given
Particulars: use in headache treatment; cited from earlier work.
On to `CN1C[C@H](C(=O)N[C@]2(C)O[C@@]3(O)[C@@H]4CCCN4C(=O)[C@H](Cc4ccccc4)N3C2=O)C=C2c3cccc4[nH]cc(c34)C[C@H]21` [ergotamine], for which the “side-effects / dependence (in words)” value was “cause dependence with extended use”.
Regarding `CC[C@@H](CO)NC(=O)[C@@H]1C=C2c3cccc4c3c(cn4C)C[C@H]2N(C)C1` [methysergide], the “side-effects / dependence (in words)” value was “severe use-limiting side-effects with long term usage”.
Take `NCCc1c[nH]c2ccc(O)cc12` [serotonin]: the “side-effects / dependence (in words)” value is “restlessness, nausea, faintness, hyperpnea, facial flushing and parasthesias”.

The target of a further series is T1, 5-HT1D (Bos taurus, UniProt F1MGM3).
T1 construct: from tissue
T1 sequence (F1MGM3 1-403): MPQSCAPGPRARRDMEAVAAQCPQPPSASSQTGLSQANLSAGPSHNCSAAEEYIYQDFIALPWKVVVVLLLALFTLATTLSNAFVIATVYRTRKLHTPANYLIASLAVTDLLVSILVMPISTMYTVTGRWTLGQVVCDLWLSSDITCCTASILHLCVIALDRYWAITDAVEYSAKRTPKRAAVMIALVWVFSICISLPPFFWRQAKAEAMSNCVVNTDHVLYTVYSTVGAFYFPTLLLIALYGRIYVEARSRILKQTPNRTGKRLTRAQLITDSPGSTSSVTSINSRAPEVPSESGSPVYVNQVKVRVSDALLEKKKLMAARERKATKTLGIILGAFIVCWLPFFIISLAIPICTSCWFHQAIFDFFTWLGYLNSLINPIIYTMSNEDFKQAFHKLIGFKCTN
Briefly: 5-HT1D binding site affinity (tritiated serotonin; methodology of Heuring and Peroutka with minor modifications). Particulars: in vitro. On the procedure:
Determination of 5-HT1D binding properties was accomplished employing methodology such as that described by Heuring and Peroutka, J. Neurosci., 7(3), 1987, 894-903; with only minor modifications. In vitro IC50 (nM) test values were determined for the compounds of this invention employing tritiated serotonin.
`CCOc1cncnc1N1CCN(CCCc2c[nH]c3ccccc23)CC1` [Example 52, 4-(5-Ethoxy-4-pyrimidinyl)-1-[3-(1H-indol-3-yl)propyl]piperazine hydrochloride hydrate] showed an IC50 of 2 nM.
In turn, `COc1cncnc1N1CCN(C(C)CCc2c[nH]c3ccccc23)CC1` (stereo not drawn) [Example 53] came in with an IC50 of 5 nM.
On to `CCC(CCc1c[nH]c2ccccc12)N1CCN(c2ncncc2OC)CC1` (stereo not drawn) [Example 54, 3-[3-[4-(5-Methoxy-4-pyrimidinyl)-1-piperazinyl]pentyl]indole], for which the IC50 worked out at 20.5 nM.
The compound `COc1cncnc1N1CCN(CCCc2c[nH]c3ccc(O)cc23)CC1` [Example 55, 1-[3-(5-Hydroxy-1H-indol-3-yl)propyl]-4-(5-methoxy-4-pyrimidinyl)piperazine] displayed a concentration for half-maximal inhibition (IC50) of 0.8 nM.
Still for that read-out and setting: with `COc1cncnc1N1CCN(CCCc2c[nH]c3ccc(F)cc23)CC1` [Example 60] the figure was 3 nM; with `COc1cncnc1N1CCN(CCCc2c[nH]c3ccccc23)CC1` [Example 61], 2.9 nM; with `COc1cncnc1N1CCN(CCCc2c[nH]c3ccccc23)CC1C` (stereo not drawn) [Example 62], 4.2 nM.
For `COc1cncnc1N1CCN(CCCc2c[nH]c3ccc(NS(C)(=O)=O)cc23)CC1` [Example 63], the IC50 stood at 5.2 nM.
For `COc1cncnc1N1CCN(CCCc2c[nH]c3ccc(N(C)S(C)(=O)=O)cc23)CC1` [Example 65], the IC50 came to 4.9 nM.
The compound `COc1cncnc1N1CCN(CCCc2c[nH]c3ccc(N(C)S(C)(=O)=O)cc23)CC1C` (stereo not drawn) [Example 66] yielded an IC50 of 12 nM. Compared with the last compound, the IC50 is about 2.4-fold higher.
In turn, `CCS(=O)(=O)Nc1ccc2[nH]cc(CCCN3CCN(c4ncncc4OC)CC3)c2c1` [Example 67] gave an IC50 of 13.7 nM.
Same read-out and setting: as for `CCS(=O)(=O)N(C)c1ccc2[nH]cc(CCCN3CCN(c4ncncc4OC)CC3)c2c1` [Example 68], the figure is 12.9 nM.
With `CCS(=O)(=O)N(C)c1ccc2[nH]cc(CCCN3CCN(c4ncncc4OC)C(C)C3)c2c1` (stereo not drawn) [Example 69], the IC50 was found to be 19.1 nM.
On the same count and under the same terms, with `CCS(=O)(=O)Nc1ccc2[nH]cc(CCCN3CCN(c4ncncc4OC)C(C)C3)c2c1` (stereo not drawn) [Example 70] the figure was 17.1 nM; with `CCOc1ccc2[nH]cc(CCCN3CCN(c4ncncc4OC)CC3)c2c1` [Example 71], 2.2 nM.
In turn, `COc1cncnc1N1CCN(CCCc2c[nH]c3ccc(OCc4ccccc4)cc23)CC1` [Example 72] returned an IC50 of 14.3 nM.
For `COc1ccc2[nH]cc(CCCN3CCN(c4ncncc4OC)CC3)c2c1` [Example 73], the 50% inhibitory concentration (IC50) was found to be 1.1 nM.
`COc1cncnc1N1CCN(CCCc2c[nH]c3cc(F)c(F)cc23)CC1` [Example 74] displayed an IC50 of 29 nM. Against the preceding compound, the IC50 is about 26-fold higher.
`COc1cncnc1N1CCN(CCCc2c[nH]c3c(F)ccc(F)c23)CC1` [Example 75]: the IC50 amounted to 5.1 nM.
Compound `COc1cncnc1N1CCN(CCCc2c[nH]c3c(F)cc(F)cc23)CC1` [Example 76] yielded a concentration for half-maximal inhibition (IC50) of 8.1 nM.

The next series concerns plasma serotonin.
Test: not given
The following applies: intramuscular injection; cited from earlier work.
On to `COC(=O)[C@H]1[C@H]2C[C@@H]3c4[nH]c5cc(OC)ccc5c4CCN3C[C@H]2C[C@@H](OC(=O)c2cc(OC)c(OC)c(OC)c2)[C@@H]1OC` [reserpine], for which the “effect on plasma serotonin (in words)” value was “lowers plasma serotonin”.

The subject of the next series is migraine sufferers.
Test: not given
The following applies: migraine patients; cited from earlier work.
In the case of `COC(=O)[C@H]1[C@H]2C[C@@H]3c4[nH]c5cc(OC)ccc5c4CCN3C[C@H]2C[C@@H](OC(=O)c2cc(OC)c(OC)c(OC)c2)[C@@H]1OC` [reserpine], the “effect on migraine headache (in words)” value is “induces a typical migraine-type headache”.
In the case of `NCCc1c[nH]c2ccc(O)cc12` [serotonin creatinine sulfate], the “effect on migraine headache (in words)” value is reported as “induced headache can be alleviated”.
With `NCCc1c[nH]c2ccc(O)cc12` [serotonin], the “effect on migraine headache (in words)” value is listed as “effective in treating migraine attacks”.
